Results from ChEMBL document CHEMBL1135949, “Pyrrolylquinoxalinediones carrying a piperazine residue represent highly potent and selective ligands to the homomeric kainate receptor GluR5” (Bioorg Med Chem Lett, 2002).

Columns and labels:
[1] = target: Glutamate receptor ionotropic, kainate 2 (Homo sapiens, UniProt Q13002); experiment: Binding affinity for human GluR6 expressed in HEK293 cells using [3]H-kainate; assay type: cell-based
[2] = target: T1, Glutamate receptor ionotropic, kainate 5 (Homo sapiens, UniProt Q16478); experiment: Binding affinity towards Kai-2 using [3]H-kainate as the radioligand
T1 sequence (Q16478 whole entry): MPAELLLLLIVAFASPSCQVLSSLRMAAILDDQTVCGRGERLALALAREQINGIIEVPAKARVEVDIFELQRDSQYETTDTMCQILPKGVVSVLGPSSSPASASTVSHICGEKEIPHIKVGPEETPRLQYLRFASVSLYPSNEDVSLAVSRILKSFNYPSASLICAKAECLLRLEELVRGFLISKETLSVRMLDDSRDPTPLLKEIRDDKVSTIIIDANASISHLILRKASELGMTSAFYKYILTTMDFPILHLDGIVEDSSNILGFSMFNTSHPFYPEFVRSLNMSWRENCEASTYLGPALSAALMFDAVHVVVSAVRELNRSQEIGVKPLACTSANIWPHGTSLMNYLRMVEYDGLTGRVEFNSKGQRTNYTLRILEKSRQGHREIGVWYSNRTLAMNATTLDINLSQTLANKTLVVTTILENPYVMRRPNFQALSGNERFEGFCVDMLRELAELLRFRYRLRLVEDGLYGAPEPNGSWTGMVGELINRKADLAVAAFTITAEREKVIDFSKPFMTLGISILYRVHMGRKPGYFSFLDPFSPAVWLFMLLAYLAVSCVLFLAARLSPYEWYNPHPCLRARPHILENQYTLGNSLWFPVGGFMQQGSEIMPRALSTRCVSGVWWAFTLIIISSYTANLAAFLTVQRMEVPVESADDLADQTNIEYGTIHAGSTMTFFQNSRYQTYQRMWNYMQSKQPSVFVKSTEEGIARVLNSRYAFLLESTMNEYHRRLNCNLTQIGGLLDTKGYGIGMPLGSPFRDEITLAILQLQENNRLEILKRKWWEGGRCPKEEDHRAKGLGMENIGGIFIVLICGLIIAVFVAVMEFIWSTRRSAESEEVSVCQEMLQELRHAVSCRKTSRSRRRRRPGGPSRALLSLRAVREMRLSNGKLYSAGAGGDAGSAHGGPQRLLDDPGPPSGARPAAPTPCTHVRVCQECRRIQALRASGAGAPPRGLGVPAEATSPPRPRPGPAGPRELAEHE

[3] = target: Glutamate receptor ionotropic, kainate 1 (Homo sapiens, UniProt P39086); experiment: Binding affinity towards cloned human GluR5 subunit stably expressed in cultured HEK293 cells using [3]H-kainate as radioligand; assay type: cell-based
[4] = target: T1, Glutamate receptor ionotropic, kainate 5; experiment: Binding affinity towards cloned human Kai-2 subunit stably expressed in cultured HEK293 cells using [3]H-kainate as radioligand; assay type: cell-based

Sequence of Glutamate receptor ionotropic, kainate 2 (Q13002 whole entry): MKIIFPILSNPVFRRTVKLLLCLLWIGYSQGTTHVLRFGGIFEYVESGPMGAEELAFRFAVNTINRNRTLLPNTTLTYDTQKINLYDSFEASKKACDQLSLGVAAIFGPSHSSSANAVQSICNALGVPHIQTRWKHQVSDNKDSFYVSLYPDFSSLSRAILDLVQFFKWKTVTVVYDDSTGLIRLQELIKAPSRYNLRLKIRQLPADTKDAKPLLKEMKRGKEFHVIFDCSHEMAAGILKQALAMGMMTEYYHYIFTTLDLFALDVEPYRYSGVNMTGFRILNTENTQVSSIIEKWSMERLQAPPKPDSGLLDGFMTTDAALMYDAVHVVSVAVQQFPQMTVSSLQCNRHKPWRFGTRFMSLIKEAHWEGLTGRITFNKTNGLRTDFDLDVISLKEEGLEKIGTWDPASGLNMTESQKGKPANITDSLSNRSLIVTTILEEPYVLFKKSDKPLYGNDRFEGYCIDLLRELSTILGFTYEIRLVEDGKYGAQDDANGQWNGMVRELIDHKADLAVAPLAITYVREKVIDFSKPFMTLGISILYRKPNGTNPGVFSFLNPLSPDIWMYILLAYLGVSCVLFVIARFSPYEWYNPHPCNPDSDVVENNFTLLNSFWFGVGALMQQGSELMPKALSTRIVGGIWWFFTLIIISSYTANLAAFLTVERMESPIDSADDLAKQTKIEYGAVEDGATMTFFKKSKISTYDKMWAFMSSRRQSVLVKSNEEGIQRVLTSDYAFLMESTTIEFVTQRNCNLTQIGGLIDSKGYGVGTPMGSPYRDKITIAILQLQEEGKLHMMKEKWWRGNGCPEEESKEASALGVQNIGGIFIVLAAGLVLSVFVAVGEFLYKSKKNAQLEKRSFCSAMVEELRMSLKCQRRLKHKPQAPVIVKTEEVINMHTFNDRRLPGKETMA
Sequence of Glutamate receptor ionotropic, kainate 1 (P39086 whole entry): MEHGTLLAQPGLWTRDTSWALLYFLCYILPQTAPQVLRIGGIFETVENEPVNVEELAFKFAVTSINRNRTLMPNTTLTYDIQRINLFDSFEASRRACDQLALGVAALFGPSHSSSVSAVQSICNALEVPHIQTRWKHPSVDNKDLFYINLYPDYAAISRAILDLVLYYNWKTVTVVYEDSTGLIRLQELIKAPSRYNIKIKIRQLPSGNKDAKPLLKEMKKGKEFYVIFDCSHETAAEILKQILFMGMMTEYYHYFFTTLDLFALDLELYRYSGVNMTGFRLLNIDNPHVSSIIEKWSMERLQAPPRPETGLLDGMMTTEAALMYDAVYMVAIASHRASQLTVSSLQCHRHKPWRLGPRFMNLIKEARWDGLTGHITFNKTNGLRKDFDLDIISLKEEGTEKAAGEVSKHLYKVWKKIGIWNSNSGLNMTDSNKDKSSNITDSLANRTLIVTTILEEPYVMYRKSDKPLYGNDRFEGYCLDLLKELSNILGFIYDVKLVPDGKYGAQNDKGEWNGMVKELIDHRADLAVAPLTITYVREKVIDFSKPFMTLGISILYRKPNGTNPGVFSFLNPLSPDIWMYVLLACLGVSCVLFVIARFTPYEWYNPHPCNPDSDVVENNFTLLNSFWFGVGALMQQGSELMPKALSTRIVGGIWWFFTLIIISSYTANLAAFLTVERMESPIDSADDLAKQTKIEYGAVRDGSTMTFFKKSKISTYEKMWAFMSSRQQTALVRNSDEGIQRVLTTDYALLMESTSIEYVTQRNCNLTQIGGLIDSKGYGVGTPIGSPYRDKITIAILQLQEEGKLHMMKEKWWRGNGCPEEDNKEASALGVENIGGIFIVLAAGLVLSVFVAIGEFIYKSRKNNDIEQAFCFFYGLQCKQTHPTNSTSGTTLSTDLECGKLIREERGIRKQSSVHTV

SMILES	Ki [1] [µM]	Ki [2] [µM]	Ki [3] [µM]	Ki [4] [µM]
NCc1ccn(-c2cc3c(cc2[N+](=O)[O-])[nH]c(=O)c(=O)n3CC(=O)O)c1	1.5	9.8	–	–
O=C(O)Cn1c(=O)c(=O)[nH]c2cc(C(F)(F)F)c(-n3ccc(CNC(=O)Nc4ccc([N+](=O)[O-])cc4)c3)cc21	0.61	12	0.1	–
O=C(O)Cn1c(=O)c(=O)[nH]c2cc([N+](=O)[O-])c(-n3cccc3)cc21	3.9	–	–	1.3
O=C(O)Cn1c(=O)c(=O)[nH]c2cc([N+](=O)[O-])c(-n3ccc(C(=O)O)c3)cc21	5.8	11	1.4	–
O=C(O)Cn1c(=O)c(=O)[nH]c2cc([N+](=O)[O-])c(-n3ccc(CN4CCCCC4)c3)cc21	28	–	–	> 30
O=C(O)CCn1c(=O)c(=O)[nH]c2cc([N+](=O)[O-])c(-n3cccc3)cc21	1.2	–	2.4	25
O=C(O)Cn1c(=O)c(=O)[nH]c2cc([N+](=O)[O-])c(-n3ccc(CN4CCC(c5ccccc5)CC4)c3)cc21	3.6	–	–	18
O=C(O)Cn1c(=O)c(=O)[nH]c2cc([N+](=O)[O-])c(-n3ccc(CNCCCc4ccccc4)c3)cc21	6.2	–	–	20
O=C(O)Cn1c(=O)c(=O)[nH]c2cc([N+](=O)[O-])c(-n3ccc(CN4CCN(Cc5ccccc5)CC4)c3)cc21	4.1	–	–	20
CN(Cc1ccccc1)Cc1ccn(-c2cc3c(cc2[N+](=O)[O-])[nH]c(=O)c(=O)n3CCC(=O)O)c1	23	–	–	> 30
O=C(O)Cn1c(=O)c(=O)[nH]c2cc([N+](=O)[O-])c(-n3ccc(CN4CCN(CCc5ccccc5)CC4)c3)cc21	1.4	–	–	25
